Reference: patent publication US10464941B2, “Therapeutic compounds” (REGENTS OF THE UNIVERSITY OF MINNESOTA, priority 2015, dated 2019)
“And” between values parts separate entries of the source, which are not always exact repeats. Equal entries are not always repeated. Marks after values point to notes of the source that are not given here.

Key:
[1] = system: IL-6; experiment: Proinflammatory cytokine IL-6 ELISA in LPS-stimulated microglia (BV2); format: cell-based, murine
Protocol: Murine primary microglia cell line (BV2) were cultured in DMEM with 10% heat-inactivated fetal bovine serum (FBS), 100 U/ml penicillin, 100 μg/ml streptomycin, 10 μg/ml gentamycin (all from Invitrogen, CA, USA). Cells were harvested on reaching 80% to 90% confluence by treating with 0.25% trypsin containing 1 mM EDTA for 5 minutes at 37° C. Cells (20,000/200 μl) were seeded on flat bottom 96 well plates and treated for 3 hrs with equimolar concentration (200 nM) of MCC22/Minocycline for 3 hrs followed by overnight treatment with LPS (1 μg/ml). At the end of the experiment, IL-6 was estimated by Sandwich ELISA using mouse IL-6 DuoSet kit (R&D Systems, Minneapolis, Minn.) in the culture supernatant.

[2] = system: HbSS and HbAS mice; experiment: Sickle cell disease mice, paw withdrawal frequency; format: in vivo, Townes transgenic humanized mice; conditions: 8.0 μmol/kg i.p.
Protocol: Townes transgenic humanized mice expressing sickle hemoglobin (HbSS/HbAS) and normal human hemoglobin (HbAA) controls (4-12 weeks of age, 20-25 g) were used in this study. Mice were characterized for hyperalgesia by quantifying cutaneous mechanical sensitivity of the hind paw and forelimb grip force. Mechanical sensitivity of the hind paw was evaluated by determining the frequency of withdrawal responses and paw withdrawal threshold. The frequency of paw withdrawal evoked by a standard von Frey monofilament with a bending force of 9.3 mN applied to the plantar surface of the hind paws was determined from 10 trials on each paw. Withdrawal threshold was determined using an electronic von Frey anesthesiometer pressed against the plantar surface with increasing force until withdrawal occurred. To assess deep tissue hyperalgesia, the tensile force of peak forelimb exertion was measured using a computerized grip force meter. To evaluate the analgesic effects of MCC22, paw withdrawal frequency was determined before and at various times after administration of […] i.p.

[3] = system: LPS-pretreated mice; experiment: animal or person; conditions: for LPS pretreated i.c.v./i.t. ratio / LPS pretreated ED50 (CI) i.t.: LPS 1 mg/kg 24 hours i.p.; for LPS pretreated ED50 (CI) i.t.: tail flick
Protocol: Male ICR-CD1 mice (17-25 g; Harlan, Madison, Wis.), C3H mice (15-20 g, National Cancer Institute, Bethesda, Md.) or TLR4 knock-out mice (gift from Dr. Sabita Roy) were housed, 4 to a small box in a temperature- and humidity-controlled environment with unlimited access to food and water. They were maintained on a 12 h light/dark cycle. All experiments were approved by the Institutional Animal Care and Use Committee of the University of Minnesota (Minneapolis, Minn.).
The tail flick assay is used to test for antinociception described by D'Amour and Smith^64 and modified by Dewey et. al.^65 Mice are held gently in one hand with the tail positioned in the apparatus (Tail Flick Analgesia Meter, Columbus Instruments, Columbus, Ohio) for radiant heat stimulus. The tail-flick response is elicited by applying radiant heat to the dorsal side of the tail. The test latency is measured before drug treatment (control) and again after the drug treatment (test) at the peak time of the compound, a 10 s maximum cut-off time is used to prevent damage to the tail. Antinociception is quantified according to the method of Harris and Pierson^66 as the percent maximal possible effect (% MPE) which is calculated as: % MPE=(Test−Control/10−Control)×100
A minimum of three groups of eight to ten mice are used for each dose response curve, and each mouse is used only once.
The compounds were tested for acute tolerance by comparing the ED80-90 dose measured on day 1 to the same dose administered and retested 24 hours later on the same mouse.
Compounds were dissolved in 5% DMSO and diluted to less than 1% DMSO for injection. These compounds were administered in a volume of 5-μl either i.c.v (Haley and McCormick) or intrathecal (i.t.) as described for mice by Hylden and Wilcox^67 in conscious mice. […] Time course studies, including the times 5, 10, 20, 30 and 60 minutes were used to determine the peak antinociception.
Pain is a hallmark of many inflammatory conditions. […] Antinociception was evaluated using the radiant heat-induced tailflick assay. Morphine was employed as a standard opioid agonist under these conditions.

[4] = system: CFA-induced mechanical hyperalgesia mouse model; experiment: Complete Freund's Adjuvant (CFA) mechanical hyperalgesia, electronic von Frey; format: in vivo, mice; conditions: i.t.
Protocol: Before injection of CFA baseline withdrawal thresholds (g) were obtained from a mechanical stimulation using an electronic von Frey anesthesiometer (IITC Life Sciences, Woodland Hills, USA) by applying an accurate force on both left and right hind paw. (2,3) The left hindpaws were then injected (intraplantar) with a 50% solution of CFA (10 μg, Sigma-Aldrich) in water while the mice are under isoflurane anesthesia (10). Twenty-four hours later the withdrawal threshold (g) was again measured prior to and after the test compound i.t. at 10, 20, 30 and 60 minutes to determine the peak time and subsequent ED50. % MPE was calculated ((Time-point withdrawal threshold with drug−CFA withdrawal threshold)/(Day 0 withdrawal threshold−CFA withdrawal threshold))*100 (Wade, C. L., et al., PLoS One 2013, 8, e79239/1-e79239/11, 11 pp; Martinov, T., et al., J Vis Exp 2013, e51212; Sorge, R. E., et al., J. Neurosci. 2011, 31, 15450-15454).

[5] = system: mice with cisplatin-induced hyperalgesia; experiment: Cisplatin-induced peripheral neuropathy, mechanical hyperalgesia (von Frey); format: in vivo, C3H/HeJ mice; conditions: cisplatin model
Protocol: Adult male C3H/HeJ mice were tested for mechanical paw withdrawal responses on 2 consecutive days prior to treatment by determining the frequency of hind paw withdrawal evoked by a standard von Frey monofilament with a bending force of 3.9 mN applied to the plantar surface of the hind paws. Mice were then given 1 mg/kg of cisplatin intraperitoneal (i.p.) daily for 7 consecutive days and on day 14 post-injection, mechanical hyperalgesia was assessed. Compounds were administered intrathecally (i.t.) and i.p. weekly to determine peak time effects and ED50/80.

[6] = system: control mice; experiment: Radiant heat tail-flick antinociception, control (LPS-untreated) mice; format: in vivo
From the text: Pain is a hallmark of many inflammatory conditions.

Cc1ccc(N(CCCN2CCC(Cc3ccc(C(N)=O)cc3)CC2)C(=O)C2CCN(C(=O)COCC(=O)NCCCCCCCCCCNC(=O)COCC(=O)N[C@H]3CC[C@@]4(O)C5Cc6ccc(O)c7c6[C@@]4(CCN5C)[C@H]3O7)CC2)cc1Cl [Compound 3e, N-(3-(4-(4-carbamoylbenzyl)piperidin-1-yl)propyl)-N-(3-chloro-4-methylphenyl)-1-(22-(((4aS,7S,7aR,12bS)-4a,9-dihydroxy-3-methyl-2,3,4,4a,5,6,7,7a-octahydro-1H-4,12-methanobenzofuro[3,2-e]isoquinolin-7-yl)amino)-5,18,22-trioxo-3,20-dioxa-6,17-diazadocosan-1-oyl)piperidine-4-carboxamide]
attenuation of IL-6 secretion ([1]; 200 nM, 3 hrs pretreatment, LPS 1 μg/ml overnight, microglial supernatant): ~30%
IL-6 secretion when combined with minocycline ([1]; MCC22 combined with minocycline, LPS): further attenuated
time to reduced hyperalgesia (decrease in paw withdrawal frequency) [2]: ≤ 30 min
LPS pretreated i.c.v./i.t. ratio [3]: ~34,000^d
LPS pretreated ED50 (CI) i.t. ([3]; i.t.): 0.0149 pmol/mouse
LPS pretreated ED50 (CI) i.t. ([3]; i.t., listed as MCC22): 0.0146 pmol/mouse
LPS pretreated i.c.v./i.t. ratio ([3]; listed as MCC22): 34,000 and 34,223
FIG. 4 LPS/MCC22 (value with interval) ([3]; LPS pretreated mice): 0.015 (0.01-0.03)
percent maximal possible effect at highest dose measured ([3]; LPS pretreated, i.c.v., 500 pmol/mouse): 41.1 ± 12.9%
potency in TLR4 KO mice ([3]; LPS-pretreated TLR4 KO mice): not reduced
effect of MK801 on antinociception ([3]; LPS-pretreated mice treated i.t. with NMDA receptor antagonist MK801, then MCC22): virtually no effect
i.t. potency ratio, morphine/MCC22 ([3]; LPS-pretreated mice, i.t.): 2400
ED50 ([3]; Mus musculus, ip, read-out: ED50 i.p.): 5.6 µmol/kg
ED50 values (95% CI) LPS (thermal) ([3]; i.t., LPS thermal hyperalgesia model): 0.015 pmol/mouse
potency increase over 19-atom spacer homologue 3c ([3]; i.t., LPS-pretreated mice): > 700 fold
tolerance upon repeated administration ([3]; i.t., LPS-pretreated mice): without signs of tolerance
potency increase over 19-atom spacer homologue 3c ([3]; i.t., LPS-pretreated mice, listed as MCC22): at least 700 fold
LPS-treated/control potency ratio ([3]; i.t., listed as MCC22): 3070 and 3131
ED50 potency ratio (β-FNA-treated/control) ([3]; inflamed mice pretreated with β-FNA): 96.6
Relative Potency relative to a mixture of monovalent mu agonist (4) and CCR5 antagonist (2) ([3]; mouse, in vivo): ~3500
potency relative to morphine or monovalent control ligand 4 ([3]; mouse, in vivo): ~1500 fold
Relative Potency relative to a mixture of monovalent mu agonist (4) and CCR5 antagonist (2) ([3]; mouse, in vivo, listed as MCC22): 3500
ED50 values (95% CI) CFA (mechanical) [4]: 0.019 pmol/mouse
ED50 (95% CI) i.p. ([5]; i.p.): 3.07 pmol/mouse
peak time ([5]; i.p.): 30 min
tolerance ([5]; i.p.): did not exhibit tolerance
ED50 (95% CI) i.t. ([5]; i.t.): 0.0004 pmol/mouse
change of potency with time ([5]; i.t.): increased in potency over 115 days
peak time ([5]; i.t.): 20 min
tolerance ([5]; i.t.): no tolerance
CONTROLS i.c.v./i.t. ratio ([6]; control mice): 10.93^e
percent maximal possible effect at highest dose measured ([6]; control mice, i.c.v., 500 pmol/mouse): 49.7 ± 14.9%
acute tolerance (ED80 retested 24 hours later) ([6]; control mice, i.t.): (23.1-90.8)^b
CONTROLS ED50 (CI) i.t. ([6]; control mice, i.t., tail flick): 45.8 pmol/mouse
CONTROLS i.c.v./i.t. ratio ([6]; control mice, listed as MCC22): 11
potency increase over 3c ([6]; i.t., LPS-untreated control mice): ~4 fold
FIG. 4 naïve/MCC22 (value with interval) ([6]; naïve mice): 45.75 (23.05-90.81)
